Test results as given in US11191269B2, “Use of an acyclic picolinamide compound as a fungicide for fungal diseases on turfgrasses” (Dow AgroSciences LLC, priority 2017, dated 2021).

How the values were obtained:
[1] = tested on: Sclerotinia homoeocarpa (SCLEHO); assay: Field assessment of Sclerotinia homoeocarpa (SCLEHO), dollar spot, on creeping bentgrass; type: in vivo
[2] = tested on: Glomerella graminicola (COLLGR); assay: Field assessment of Glomerella graminicola (COLLGR), anthracnose, on annual bluegrass; type: in vivo

COc1ccnc(C(=O)N[C@@H](C)C(=O)O[C@@H](C)C(c2ccc(F)cc2)c2ccc(F)cc2)c1OC(C)=O [Compound I, (S)-1,1-bis(4-fluorophenyl)propan-2-yl (3-acetoxy-4-methoxypicolinoyl)-L-alaninate]
Dollar Spot Infestation (% Visual) ([1]; 250 g ai/ha, 0 DAAA, percentage of plot infested): 2.2% | Dollar Spot Infestation (% Visual) ([1]; 250 g ai/ha, 6 DAAC): 0.6% | Dollar Spot Infestation (% Visual) ([1]; 250 g ai/ha, 8 DAAA): 0.8% | Dollar Spot Infestation (% Visual) ([1]; 250 g ai/ha, 8 DAAB): 0.8% | Dollar Spot Infestation (% Visual) ([1]; 250 g ai/ha, 13 DAAB): 1.1% | Dollar Spot Infestation (% Visual) ([1]; 250 g ai/ha, 13 DAAC): 2.1% | Dollar Spot Infestation (% Visual) ([1]; 250 g ai/ha, 14 DAAA): 0.7% | Dollar Spot Infestation (% Visual) ([1]; 500 g ai/ha, 0 DAAA): 1.7% | Dollar Spot Infestation (% Visual) ([1]; 500 g ai/ha, 6 DAAC): 0.3% | Dollar Spot Infestation (% Visual) ([1]; 500 g ai/ha, 8 DAAA): 0.5% | Dollar Spot Infestation (% Visual) ([1]; 500 g ai/ha, 8 DAAB): 0.5% | Dollar Spot Infestation (% Visual) ([1]; 500 g ai/ha, 13 DAAB): 0.6% | Dollar Spot Infestation (% Visual) ([1]; 500 g ai/ha, 13 DAAC): 0.5% | Dollar Spot Infestation (% Visual) ([1]; 500 g ai/ha, 14 DAAA): 0.5% | Dollar spot control compared with commercial standards (in words) ([1]; Compound I applied at 500 g ai/ha): provided better control than Eagle 20EW and was equivalent to Xzemplar Fungicide | Dollar spot disease control (in words) ([1]; formulations of Compound I, observation period): significantly reduce dollar spot disease | Anthracnose control compared with commercial standard (in words) ([2]; 250 and 500 g ai/ha treatments, Poa annua): equivalent to the control provided by Velista | Anthracnose Infestation (% Visual) ([2]; 250 g ai/ha, 0 DAAA, Poa annua, percentage of plot infested): 22.1% | Anthracnose Infestation (% Visual) ([2]; 250 g ai/ha, 8 DAAA, Poa annua): 7% | Anthracnose Infestation (% Visual) ([2]; 250 g ai/ha, 10 DAAB, Poa annua): 22.1% | Anthracnose Infestation (% Visual) ([2]; 250 g ai/ha, 11 DAAC, Poa annua): 11.5% | Anthracnose Infestation (% Visual) ([2]; 250 g ai/ha, 14 DAAA, Poa annua): 7% | Anthracnose Infestation (% Visual) ([2]; 250 g ai/ha, 17 DAAB, Poa annua): 11.5% | Anthracnose Infestation (% Visual) ([2]; 250 g ai/ha, 17 DAAC, Poa annua): 22.1% | Anthracnose Infestation (% Visual) ([2]; 500 g ai/ha, 0 DAAA, Poa annua): 43.2% | Anthracnose Infestation (% Visual) ([2]; 500 g ai/ha, 8 DAAA, Poa annua): 9.2% | Anthracnose Infestation (% Visual) ([2]; 500 g ai/ha, 10 DAAB, Poa annua): 9.2% | Anthracnose Infestation (% Visual) ([2]; 500 g ai/ha, 11 DAAC, Poa annua): 11.5% | Anthracnose Infestation (% Visual) ([2]; 500 g ai/ha, 14 DAAA, Poa annua): 7% | Anthracnose Infestation (% Visual) ([2]; 500 g ai/ha, 17 DAAB, Poa annua): 11.5% | Anthracnose Infestation (% Visual) ([2]; 500 g ai/ha, 17 DAAC, Poa annua): 11.5% | Anthracnose disease control (in words) ([2]; formulations of Compound I, Poa annua putting greens): provided significant control of anthracnose disease
